Bridge positions count the residues as written; N and C are the ends. Peptide text beside a SMILES is read from it.
Columns and labels:
native human plasmin [1] = target: T1, native human plasmin (Homo sapiens, UniProt P00747); assay: Plasmin inhibitory assay (chromogenic peptide substrate); assay type: biochemical; settings: plant-derived peptide; 1 nM native human plasmin, 30 min pre-incubation, 0.1 M Tris-HCl, pH 8.0, 0.1 M NaCl, 0.005% Triton X-100; 100 μM Acetyl-Arg-Met(sulphone)-Tyr-Arg-pNA, 405 nm over 7 min; Morrison equation; n = 3 independent assays; read-out: inhibition constant (Ki)
T1 construct: incubated with 1 nM native human plasmin (Sigma-Aldrich); purchased Sigma-Aldrich
T1 sequence (P00747 581-810 limits assumed): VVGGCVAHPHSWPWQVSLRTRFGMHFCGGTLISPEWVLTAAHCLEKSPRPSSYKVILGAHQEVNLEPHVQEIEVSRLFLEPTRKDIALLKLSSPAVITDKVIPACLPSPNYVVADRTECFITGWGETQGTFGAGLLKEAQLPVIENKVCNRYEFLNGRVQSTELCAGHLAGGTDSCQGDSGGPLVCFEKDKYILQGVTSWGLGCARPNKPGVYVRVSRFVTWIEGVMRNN
T1 sequence (P00747 97-580 partner limits assumed): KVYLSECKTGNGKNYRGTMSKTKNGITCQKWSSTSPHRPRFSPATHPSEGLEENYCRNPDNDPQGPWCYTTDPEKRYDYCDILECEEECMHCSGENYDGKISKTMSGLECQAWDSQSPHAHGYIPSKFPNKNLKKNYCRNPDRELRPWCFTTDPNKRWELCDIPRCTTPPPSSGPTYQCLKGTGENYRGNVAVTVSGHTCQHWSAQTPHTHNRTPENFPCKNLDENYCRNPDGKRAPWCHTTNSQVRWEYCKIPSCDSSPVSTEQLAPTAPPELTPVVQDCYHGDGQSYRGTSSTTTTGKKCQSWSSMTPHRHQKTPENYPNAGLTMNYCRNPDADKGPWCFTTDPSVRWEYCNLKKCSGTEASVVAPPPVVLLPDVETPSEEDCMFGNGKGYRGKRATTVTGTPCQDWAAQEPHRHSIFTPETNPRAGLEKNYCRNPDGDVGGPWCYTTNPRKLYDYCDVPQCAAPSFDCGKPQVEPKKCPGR
Protocol: (§1) A serial dilution of plant-derived [T4Y,I7R]SFTI-1 was incubated with 1 nM native human plasmin (Sigma-Aldrich) for 30 min in assay buffer (0.1 M Tris-HCl, pH 8.0, 0.1 M NaCl, and 0.005% Triton X-100) in low binding 96-well plates (Corning). […] The inhibition constant (Ki) was determined from three independent assays by the Morrison equation and non-linear regression using GraphPad Prism 6.

native human plasmin [2] = target: T1, native human plasmin; settings: substrate of plasmin assay; determination not described, no reference given; cited from earlier work
Protocol: as §1, with “non-lin ...” for “non-linear regression using GraphPad Prism 6.”

Row | Molecule | Ki (native human plasmin [1]) | Km (native human plasmin [2])
1 | CC[C@H](C)[C@@H]1NC(=O)[C@@H]2CCCN2C(=O)[C@@H]2CCCN2C(=O)[C@H](CCCNC(=N)N)NC(=O)[C@H](CO)NC(=O)[C@H](CCCCN)NC(=O)[C@H](Cc2ccc(O)cc2)NC(=O)[C@@H]2CSSC[C@H](NC1=O)C(=O)N[C@@H](Cc1ccccc1)C(=O)N1CCC[C@H]1C(=O)N[C@@H](CC(=O)O)C(=O)NCC(=O)N[C@@H](CCCNC(=N)N)C(=O)N2 [[T4Y,I7R]SFTI-1] (cyclo(CFPDGRCYKSRPPI); disulfide 1-7) | 0.025 ± 0.004 nM | 
2 | Acetyl-Arg-Met(sulphone)-Tyr-Arg-pNA [colorimetric peptide substrate of plasmin] |  | 23.5 µM

Source: PMC6530601, “Rapid and Scalable Plant-Based Production of a Potent Plasmin Inhibitor Peptide” (Frontiers in Plant Science, 2019)
